Results from ChEMBL document CHEMBL5131522, “3-Pyrrolidine-indole Derivatives as 5-HT2-Selective Receptor Modulators for the Potential Treatment of Mental Disorders” (ACS Med Chem Lett, 2022).

These compounds were tested against 5-hydroxytryptamine receptor 2A (Homo sapiens, UniProt P28223) (assay: Agonist activity at human 5-HT2A receptor expressed in cells assessed as increase in calcium mobilization by Calcium-6 dye based FLIPR assay).
Type: functional, cell-based

Chain of 5-hydroxytryptamine receptor 2A (P28223 whole entry): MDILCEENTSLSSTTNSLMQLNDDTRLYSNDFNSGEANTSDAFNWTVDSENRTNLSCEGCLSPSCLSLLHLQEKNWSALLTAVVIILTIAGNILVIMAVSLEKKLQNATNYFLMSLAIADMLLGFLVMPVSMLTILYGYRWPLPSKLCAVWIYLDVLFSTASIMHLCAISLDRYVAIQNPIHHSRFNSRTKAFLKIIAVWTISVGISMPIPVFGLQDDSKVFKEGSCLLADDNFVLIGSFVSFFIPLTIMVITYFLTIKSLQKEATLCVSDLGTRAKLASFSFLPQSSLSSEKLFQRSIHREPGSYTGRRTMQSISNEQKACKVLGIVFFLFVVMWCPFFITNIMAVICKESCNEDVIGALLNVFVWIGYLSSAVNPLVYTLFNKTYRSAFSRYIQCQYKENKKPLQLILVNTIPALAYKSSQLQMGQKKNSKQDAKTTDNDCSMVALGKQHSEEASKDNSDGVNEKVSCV

Row | Compound | EC50 [µM]
1 | [2H]C([2H])(c1c[nH]c2cccc(OC)c12)[C@H]1CCCN1C([2H])([2H])[2H] | < 1
2 | CN1CCC[C@@H]1Cc1c[nH]c2cccc(O)c12 | < 1
3 | [2H]C([2H])(c1c[nH]c2cccc(O)c12)[C@H]1CCCN1C([2H])([2H])[2H] | < 1
4 | [2H]C([2H])([2H])N1CCC[C@@H]1Cc1c[nH]c2cccc(O)c12 | < 1
5 | [2H]C([2H])([2H])N1CCC[C@@H]1Cc1c[nH]c2cccc(F)c12 | < 1
6 | [2H]C([2H])(c1c[nH]c2cccc(O)c12)[C@@H]1CCCN1 | < 1
7 | [2H]C([2H])(c1c[nH]c2cccc(F)c12)[C@H]1CCCN1C([2H])([2H])[2H] | < 1
8 | [2H]C([2H])(c1c[nH]c2cccc(F)c12)[C@H]1CCCN1 | 1
9 | [2H]C([2H])([2H])N1CCC[C@H]1Cc1c[nH]c2cccc(OCc3ccccc3)c12 | < 10
10 | Oc1cccc2[nH]cc(C[C@H]3CCCN3)c12 | < 1
